Source: patent EP3046573B1, “AMYLIN ANALOGUES” (Zealand Pharma A/S, priority 2013, dated 2015)
Numbered stars: 1 amine (or outer) side, 2 acyl side, 3 side chain; on linkers, the order of the positions; unused ones are H or OH. Bridge positions count the residues as written; N and C are the ends. Square brackets hold non-standard residues; d marks the D form. Peptide text beside a SMILES is read from it. * marks the point of attachment. C20 diacid = O=C(O)CCCCCCCCCCCCCCCCCCC(=O)*; γGlu = O=C(O)[C@H](CCC(=O)[*:2])N[*:1]; Hyp = O=C(O)[C@@H]1C[C@@H](O)CN1; NMeI = CC[C@H](C)[C@H](NC)C(=O)O; Sar = CNCC(=O)O

Assays:
[1] = Assessment of chemical stability: normalized purity by RP-HPLC after incubation at 40 °C; assay type: physicochemical; conditions: normalized purity (T=0 set to 100), 0.2 mg/ml
Method in brief: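 Peptides at 0.2 mg/ml in water adjusted to pH 4, 7.5 or 9, held at 40 °C for 7 days. Purity by RP-HPLC (C8/ammonium formate or C18/TFA gradients), UV 220 nm, as main-peak area-%; normalized to T=0 set as 100 for each pH.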

[2] = Pharmacokinetic (PK) profiling in rats; assay type: in vivo; conditions: male, Sprague Dawley, rat, plasma, single sc bolus, 100 nmol/kg (18, NN96), 20 nmol/kg (72, 76), 30 nmol/kg (73, 82, 118, 162, 166, 172); for CL/F: apparent clearance; for half-life: terminal elimination half-life, read-out: t½ (converted)
Procedure: Sprague Dawley male rats were given a single subcutaneous (sc) bolus of each peptide to be tested at doses as specified below..
Study A: Following the administration of a 100 nmol/kg dose of a test peptide of the invention (Compound 18) and a comparison pramlintide analogue NN96 (see Example 5, above), respectively, blood samples were drawn from the tail vein at 0.5, 3, 8, 15, 36, 60 and 81 hours post-dosing. 4 rats were used (2 rats per compound). The rats were euthanized immediately after the last blood sampling by overdose of O2/CO2.
Study B: 20 nmol/kg doses of Compound 72 and Compound 76, respectively, of the invention were administered. Blood samples were drawn by sublingual bleeding prior to dosing and at 2, 6, 12, 24, 48, 72 and 96 hours after dosing. 4 rats were used (2 rats per compound). The rats were euthanized immediately after the last blood sampling by overdose of O2/CO2.
Study C: 30 nmol/kg doses of Compound 73, Compound 82 and Compound 118, respectively, of the invention were administered. Blood samples were drawn from the tail vein prior to dosing and at 24, 48, 72 and 96 hours after dosing. Blood samples were taken from two rats at each time point, and only 2 blood samples were drawn from each rat, i.e. 8 rats were used for each compound. The rats were euthanized immediately after the last blood sampling by concussion and cervical dislocation.
Study D: 30 nmol/kg doses of Compound 162, Compound 166 and Compound 172 were administered. Blood samples were drawn from the tail vein prior to dosing and at 24, 48, 72, 96 and 168 hours after dosing. Blood samples were taken from two rats at each time point, and only 2 blood samples were drawn from each rat, i.e. 10 rats were used for each compound. The rats were euthanized immediately after the last blood sampling by concussion and cervical dislocation.
The dosing vehicle used for each test peptide was a mannitol-containing histidine buffer (pH 7.0). Plasma samples were analyzed after precipitation with ethanol by liquid chromatography mass spectrometry (LC-MS/MS). Mean plasma concentrations were used for calculation of the pharmacokinetic parameters using the non-compartmental approach in Phoenix WinNonlin 6.3.
Plasma terminal elimination half-life (t½) was determined as In(2)/λz, where λz is the magnitude of the slope of the log linear regression of the log concentration versus time profile during the terminal phase. Apparent clearance (CL/F) was determined as dose/AUCinf (sc), where AUCinf is the area under the plasma concentration vs. time curve extrapolated to infinity (AUCinf = AUClast + Clast/λz, where Clast is the last observed plasma concentration).

| Compound | Chem. stability; 7 days, 40°C pH 4 ([1]; pH 4, 7 days) | Chem. stability; 7 days, 40°C pH 7.5 ([1]; pH 7.5, 7 days) | Chem. stability; 7 days, 40°C pH 9 ([1]; pH 9, 7 days) | CL/F [2] | half-life [2] |
| --- | --- | --- | --- | --- | --- |
| CC[C@H](C)[C@@H](C(=O)N[C@@H](CC(C)C)C(=O)N[C@H](CO)C(=O)N[C@@H](CO)C(=O)N[C@H](C(=O)N[C@@H](CC(N)=O)C(=O)N[C@H](C(=O)NCC(=O)N[C@@H](CO)C(=O)N[C@@H](CC(N)=O)C(=O)N[C@H](C(=O)N1CCC[C@H]1C(N)=O)[C@@H](C)O)C(C)C)[C@@H](C)O)N(C)C(=O)[C@H](C)NC(=O)CN(C)C(=O)[C@@H](Cc1ccccc1)NC(=O)[C@H](CC(N)=O)NC(=O)[C@H](CC(N)=O)NC(=O)[C@H](CO)NC(=O)[C@H](CO)NC(=O)[C@H](CCCNC(=N)N)NC(=O)[C@H](Cc1c[nH]cn1)NC(=O)[C@H](CC(C)C)NC(=O)[C@H](Cc1ccccc1)NC(=O)[C@H](CCC(=O)O)NC(=O)[C@H](C)NC(=O)[C@H](CC(C)C)NC(=O)[C@H](CCCNC(=N)N)NC(=O)[C@H](CCC(N)=O)NC(=O)[C@@H](NC(=O)[C@H](C)NC(=O)[C@@H]1CSSC[C@H](NC(=O)[C@H](CCCCN)NC(=O)CC[C@H](NC(=O)CCCCCCCCCCCCCCCCCCC(=O)O)C(=O)O)C(=O)N[C@@H](CC(N)=O)C(=O)N[C@@H]([C@@H](C)O)C(=O)N[C@@H](C)C(=O)N[C@@H]([C@@H](C)O)C(=O)N1)[C@@H](C)O [Compound 72, [19CD]-isoGlu-KC()NTATC()ATQRLAEFLHRSSNN-DPhe-Gly(Me)-A-Ile(Me)-L-DSer-STNVGSNTP] ({C20 diacid-γGlu}-KCNTATCATQRLAEFLHRSSNN[dF][Sar]A[NMeI]L[dS]STNVGSNTP-NH2; disulfide 2-7) | 90 area-% | 81 area-% | 80 area-% | 2.7 mL/h/kg | 30.9 h |
| CC[C@H](C)[C@@H](C(=O)N[C@@H](CC(C)C)C(=O)N[C@@H](CO)C(=O)N[C@@H](CO)C(=O)N[C@H](C(=O)N[C@@H](CCC(=O)O)C(=O)N[C@H](C(=O)NCC(=O)N[C@@H](CO)C(=O)N[C@@H](CCC(=O)O)C(=O)N[C@H](C(=O)N1CCC[C@H]1C(N)=O)[C@@H](C)O)C(C)C)[C@@H](C)O)N(C)C(=O)[C@H](C)NC(=O)CN(C)C(=O)[C@H](Cc1ccccc1)NC(=O)[C@H](CO)NC(=O)[C@H](CO)NC(=O)[C@H](CO)NC(=O)[C@H](CO)NC(=O)[C@H](CCCNC(=N)N)NC(=O)[C@H](Cc1c[nH]cn1)NC(=O)[C@H](CC(C)C)NC(=O)[C@H](Cc1ccccc1)NC(=O)[C@H](CCC(=O)O)NC(=O)[C@H](C)NC(=O)[C@H](CC(C)C)NC(=O)[C@H](CCCNC(=N)N)NC(=O)[C@H](CCC(N)=O)NC(=O)[C@@H](NC(=O)[C@H](C)NC(=O)[C@@H]1CSSC[C@H](NC(=O)[C@H](CCCNC(=N)N)NC(=O)CC[C@H](NC(=O)CCCCCCCCCCCCCCCCCCC(=O)O)C(=O)O)C(=O)N[C@@H](CC(N)=O)C(=O)N[C@@H]([C@@H](C)O)C(=O)N[C@@H](C)C(=O)N[C@@H]([C@@H](C)O)C(=O)N1)[C@@H](C)O [Compound 76, [19CD]-isoGlu-RC()NTATC()ATQRLAEFLHRSSSSF-Gly(Me)-A-Ile(Me)-LSSTEVGSETP-NH2] ({C20 diacid-γGlu}-RCNTATCATQRLAEFLHRSSSSF[Sar]A[NMeI]LSSTEVGSETP-NH2; disulfide 2-7) | – | – | – | 3.53 mL/h/kg | 37.3 h |
| CC[C@H](C)[C@@H](C(=O)N[C@@H](CC(C)C)C(=O)N[C@@H](CO)C(=O)N[C@@H](CO)C(=O)N[C@H](C(=O)N[C@@H](CCC(=O)O)C(=O)N[C@H](C(=O)NCC(=O)N[C@@H](CO)C(=O)N[C@@H](CCC(=O)O)C(=O)N[C@H](C(=O)N1C[C@H](O)C[C@H]1C(N)=O)[C@@H](C)O)C(C)C)[C@@H](C)O)N(C)C(=O)[C@H](C)NC(=O)CN(C)C(=O)[C@H](Cc1ccccc1)NC(=O)[C@H](CO)NC(=O)[C@H](CO)NC(=O)[C@H](CCCNC(=N)N)NC(=O)[C@H](Cc1c[nH]cn1)NC(=O)[C@H](CC(C)C)NC(=O)[C@H](Cc1ccccc1)NC(=O)[C@H](CCC(=O)O)NC(=O)[C@H](C)NC(=O)[C@H](CC(C)C)NC(=O)[C@H](CCCNC(=N)N)NC(=O)[C@H](CCC(=O)O)NC(=O)[C@@H](NC(=O)[C@H](C)NC(=O)[C@@H]1CSSC[C@H](NC(=O)[C@H](CCCNC(=N)N)NC(=O)CC[C@H](NC(=O)CCCCCCCCCCCCCCCCCCC(=O)O)C(=O)O)C(=O)NCC(=O)N[C@@H]([C@@H](C)O)C(=O)N[C@@H](C)C(=O)N[C@@H]([C@@H](C)O)C(=O)N1)[C@@H](C)O [Compound 166, [19CD]-isoGlu-RC()GTATC()ATERLAEFLHRSSF-Gly(Me)-A-Ile(Me)-LSSTEVGSET-Hyp-NH2] ({C20 diacid-γGlu}-RCGTATCATERLAEFLHRSSF[Sar]A[NMeI]LSSTEVGSET[Hyp]-NH2; disulfide 2-7) | – | – | – | 3.79 mL/h/kg | 27.9 h |
| CC[C@H](C)[C@@H](C(=O)N[C@@H](CC(C)C)C(=O)N[C@@H](CO)C(=O)N[C@@H](CO)C(=O)N[C@H](C(=O)N[C@@H](CCC(=O)O)C(=O)N[C@H](C(=O)NCC(=O)N[C@@H](CO)C(=O)N[C@@H](CCC(=O)O)C(=O)N[C@H](C(=O)N1CCC[C@H]1C(N)=O)[C@@H](C)O)C(C)C)[C@@H](C)O)N(C)C(=O)[C@H](C)NC(=O)CN(C)C(=O)[C@H](Cc1ccccc1)NC(=O)[C@H](CO)NC(=O)[C@H](CO)NC(=O)[C@H](CCCNC(=N)N)NC(=O)[C@H](Cc1c[nH]cn1)NC(=O)[C@H](CC(C)C)NC(=O)[C@H](Cc1ccccc1)NC(=O)[C@H](CCC(=O)O)NC(=O)[C@H](C)NC(=O)[C@H](CC(C)C)NC(=O)[C@H](CCCNC(=N)N)NC(=O)[C@H](CCC(=O)O)NC(=O)[C@@H](NC(=O)[C@H](C)NC(=O)[C@@H]1CSSC[C@H](NC(=O)[C@H](CCCNC(=N)N)NC(=O)CC[C@H](NC(=O)CCCCCCCCCCCCCCCCCCC(=O)O)C(=O)O)C(=O)NCC(=O)N[C@@H]([C@@H](C)O)C(=O)N[C@@H](C)C(=O)N[C@@H]([C@@H](C)O)C(=O)N1)[C@@H](C)O [Compound 162, [19CD]-isoGlu-RC()GTATC()ATERLAEFLHRSSF-Gly(Me)-A-Ile(Me)-LSSTEVGSETP-NH2] ({C20 diacid-γGlu}-RCGTATCATERLAEFLHRSSF[Sar]A[NMeI]LSSTEVGSETP-NH2; disulfide 2-7) | – | – | – | 5.92 mL/h/kg | 29.8 h |
